How the values were obtained:
[1] = tested on: T241 fibrosarcoma cells; test: fibrosarcoma tumour growth in mice (HRGP); assay type: in vivo; conditions: fibrosarcoma-bearing mice, summary of experiment 4
Description: Animal work was carried out at the local animal facility and was approved by the Uppsala University board of animal experimentation and thus performed according to the UKCCCR guidelines for the welfare of animals in experimental neoplasia (Workman et al (1988)). The mice were anesthetized with isoflurane (Forene; Abbott) during all manipulations. Female, 5 week old, C57BL6/1 mice (Mollegard/Bomhultgard, Denmark) were injected with 0.5×10^6 T241 fibrosarcoma cells subcutaneously (s.c.) into the left flank. Animals carrying palpable tumours were randomized (n=7-10 animals/treatment group) and received treatment with vehicle (PBS), 4 mg/kg/day of pHRGP or 5 mg/kg/day of human IgG or His-HRGP, given as daily subcutaneous injections in the right flank. The tumours were measured with a caliper once a day, in a blind procedure, and volumes were calculated by the formula […]. When the tumours reached the upper limit of 2 cm^3, the mice were sacrificed. Three animals in each group were perfused with 4% paraformaldehyde in PBS pH 7.4. Tumours were embedded in paraffin according to standard histological procedures and sectioned at […] thickness.
C57/bl6 mice were inoculated subcutaneously with T241 fibrosarcoma cells on their left flank and when the tumours were palpable (after 4-6 days), a daily treatment was initiated with HRGP or control (PBS; FIG. 2A, or human IgG; FIG. 2B). Endostatin was included in one study for comparison (FIG. 2B). The treatment was given as subcutaneous injections in the right flank until the size of the control tumours reached the upper limit of […] (11 days; FIG. 2A, 14 days; FIG. 2B). Injections with both pHRGP (4 mg/kg/day) and His-HRGP (5 mg/kg/day) led to a drastic reduction in tumour growth and at the time of sacrifice, the size of the tumours was reduced by 67% (FIG. 2A) and 61% (FIG. 2B) respectively, compared to control-treated animals. Endostatin treatment (25 mg/kg/day) lacked significant inhibitory effect on tumour growth in this model (32% decrease).

[2] = tested on: NIH 3T3 murine fibroblasts; test: chemotaxis assay in modified Boyden chamber, NIH 3T3 fibroblasts; assay type: cell-based; conditions: 100 ng/ml HRGP
Description: The porcine aortic endothelial (PAE) cell line overexpressing FGF receptor-1 (FGFR-1) (Wennström et al 1992) was cultured in Ham's F12/10% fetal bovine serum (FCS) and NIH 3T3 murine fibroblasts were cultured in Dulbecco's modified medium (DMEM)/10% newborn calf serum (NCS). F12, DMEM and serum were bought from Life Technologies. Primary bovine adrenal cortex capillary endothelial (BCE) cells were cultured on gelatin-coated dishes in DMEM/10% NCS and 2 ng/ml FGF-2 (Boehringer Mannheim). For chemotaxis assays, both PAE and NIH 3T3 cells were serum-starved over night in 0.1% BSA and BCE cells in 0.5% NCS. Human embryonic kidney (HEK) 293-EBNA cells were cultured in DMEM/10% FCS. Approximately every second month they were given 0.25 mg/ml G418 (Calbiochem) to ensure positive selection of the EBNA-1 expressing cells.
A migration assay was performed in a modified Boyden chamber as described earlier (Auerbach et al., 1991) using micropore polycarbonate filters (8 μm thick, 8 μm pore) coated with type-1 collagen solution at 100 μg/ml (Vitrogen 100, Collagen Corp). […] After 5 h at 37° C., migrated cells were stained with Giemsa and counted using an image analysis software (Easy Image Analysis) from Tekno Optik AB, Sweden. All samples were analysed in at least six parallel wells for each treatment.

[3] = in vivo; cited from earlier work
[4] = tested on: chicken chorioallantoic membrane (CAM); test: chicken chorioallantoic membrane (CAM) angiogenesis assay; assay type: in vivo; conditions: FGF-2 or VEGF-A 0.2 mg per filter, HRGP 3 mg per filter, three days
Description: The effect of HRGP on anglogenesis was tested in the chicken chorioallantoic membrane (CAM) assay.
The conditions for the chorioallantoic membrane (CAM) assay followed essentially a previously described procedure (Friedlander et al (1995), Dixelius et al, (2000)). FGF-2 (Boehringer Mannheim) and VEGF-A (Peprotech) was used at 0.2 mg per filter and purified pHRGP or rHRGP at 3 mg per filter. The treated CAM's were inspected in a light microscope and the score, from 0 (low) to 3 (high) was based on the number of vessel branch points. Average values for 5-6 embryos were recorded.
A filter disc soaked in vehicle or growth factor, with or without HRGP, was placed on top of the CAM in the vicinity of a large vessel and incubated for three days. Treatment of the CAM with growth factors, such as FGF-2, stimulated angiogenesis (FIG. 1C; Table 1).

Q: For “HRGP: mature human Histidine Rich Glycoprotein, about 507 amino acid residues”, which “reduction in tumour volume compared to control-treated mice” value [1] is on record?
A: The value was “more than 60%”.

Q: What about the “FGF-2-induced chemotaxis of NIH 3T3 murine fibroblasts” value [2] of the same substance?
A: Its value is “not inhibited”.

Q: And the plasma half-life [3]?
A: The plasma half-life was “three days”.

Q: And the “growth factor-induced CAM angiogenesis (newly formed vessels)” value [4]?
A: The value was “effectively inhibited”.
